The target of one experiment is T1, PKMYT1 (Homo sapiens, UniProt Q99640).
T1 construct: PKMYT1 (93 kD, full length, N-terminal GST tag from Signal Chem); GST (N); purchased Signal Chem
T1 sequence (Q99640 1-499): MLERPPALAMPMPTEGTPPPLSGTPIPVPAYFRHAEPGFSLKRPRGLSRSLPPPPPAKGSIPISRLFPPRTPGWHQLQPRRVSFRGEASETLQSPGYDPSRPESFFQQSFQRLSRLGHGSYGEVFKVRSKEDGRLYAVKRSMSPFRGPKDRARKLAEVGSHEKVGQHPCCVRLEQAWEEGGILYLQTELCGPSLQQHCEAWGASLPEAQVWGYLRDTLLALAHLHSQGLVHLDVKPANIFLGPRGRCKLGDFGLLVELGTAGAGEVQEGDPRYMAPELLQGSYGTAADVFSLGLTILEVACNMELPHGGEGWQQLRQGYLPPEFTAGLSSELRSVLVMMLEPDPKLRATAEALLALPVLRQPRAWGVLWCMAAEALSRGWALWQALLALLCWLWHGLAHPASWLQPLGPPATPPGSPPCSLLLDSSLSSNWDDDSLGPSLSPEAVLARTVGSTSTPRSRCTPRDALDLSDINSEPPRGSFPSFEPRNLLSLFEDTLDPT
The experiment can be described thus: ADP-Glo PKMYT1 ATP-depletion assay. Conditions: 50 nM PKMYT1, 13.3 nM CDK1, read-out: Biochemical IC50. The method, then:
(§1) Biochemical IC50 values were determined via ADP-Glo™ assay. Cellular IC50 values were determined via AlphaLISA assay.
ADP-Glo™ PKMYT1 ATP-depletion assay. The activity of PKMYT1 is measured using a luciferase-luciferin based ATP detection reaction to quantify ATP depletion resulting from kinase-catalyzed phosphoryl transfer to CDK1 or autophosphorylation of PKMYT1. The ADP generated as a byproduct of the reaction is converted to ATP and used to drive a luciferase reaction. Test compounds were dissolved in DMSO and dispensed into Corning 3824 384-well plates prior to the experiment such that the final DMSO concentration was <1%. To the compounds was added 3 μL of PKMYT1 (93 kD, full length, N-terminal GST tag from Signal Chem). The reaction was started by the addition of 2 μL of CDK1 (58 kDa, full length, N-terminal GST tag from Signal Chem) and ATP in assay buffer (50 mM Hepes, 40 mM NaCl, 10 mM MgCl2, 1 mM DTT, 0.1 mg/mL BSA, 2.5 mM MnCl2). Final assay concentrations were 50 nM PKMYT1, 13.3 nM CDK1, and 88 µM ATP. Plates were centrifuged for 1 minute at 1000 RPM and incubated at RT for 120 minutes. After the incubation period, ADP-Glo™ reagent was added and the plates were incubated for another 40 minutes before finally adding the kinase detection reagent. 30 minutes after the addition, plates were placed on a PHERAstar® plate reader and read using the Luminescence Protocol, integration time at 0.5 seconds.

The test system of experiment [1] is phosphorylation of CDK1 at Thr14 in HCC1806 cells. The experiment can be described thus: Cell lysate AlphaLISA assay measuring inhibition of phosphorylation of CDK1 Thr14. The class given is cell-based. Conditions: read-out: Cellular IC50. Here is the method: as §1
Cell lysate AlphaLISA® assay measuring inhibition of phosphorylation of CDK1 Thr14. Inhibition of phosphorylation of CDK1 at Thr14 was determined using AlphaLISA® SureFire® Ultra™ Kit from Perkin Elmer (ALSU-PCDK1-A10K). HCC1806 cells were seeded at 2K cells per well (50 μl/well) in 384-well plates (Corning 3570) and stored overnight at 37° C. and 5% CO2. The following day, the compounds dissolved in DMSO were introduced to the cells and incubated for 4 hours at 37° C. and 5% CO2. The cells were then washed with PBS using Blue®Washer and 10 μl of lysis buffer containing protease inhibitor was added. The plate was placed on an orbital shaker (at 4° C.) for 30 minutes and stored overnight at −80° C. for complete lysing. The next day, the plates were thawed at room temperature for at least 30 min. Reagents were prepared in a dimmed light setting (<100 lumens). The assay was run by first adding 5 μl of the acceptor mix (reaction buffer 1: reaction buffer 2: activation buffer: acceptor beads 47:47:4:2), covering the plate with foil, shaking for 2 minutes and incubating at RT for 60 minutes. The donor mix (dilution buffer: donor beads 47:3) was then added at 5 μl per well, placed on the shaker for 2 minutes and incubated at RT for 60 minutes before reading the plates on a PHERAstar® plate reader. The results were normalized to DMSO (0% Inhibition) and 3 μM of reference compound.
In general terms: In Alpha technology, singlet oxygen from a donor bead excites a nearby acceptor bead.

Where two headings read alike, the source gives them in different places. Where only a bound is given, the exact number is not on record here.

As a reminder, the IC50 is the midpoint of a concentration-inhibition curve.

Consider `Cc1c(O)cccc1-c1c(N)c(C(N)=O)cc2nccnc12` (single isomer, unassigned) [Compound 89, (M)-7-amino-8-(3-hydroxy-2-methylphenyl)quinoxaline-6-carboxamide], for which the IC50 is 1 to 5 µM at PKMYT1 and at least 5 µM in experiment [1] (4 hours).

`Cc1c(F)cncc1C1=c2ncccc2=NC(C(N)=O)C1N` (stereo not drawn) [Compound 225]: the IC50 (on PKMYT1; in experiment [1] (4 hours)) was at least 5 µM in each case.

With `Cc1ccc(O)c(C)c1-c1c(N)c(C(N)=O)nc2cccnc12` (single isomer, unassigned) [Compound 10, (M)-3-amino-4-(3-hydroxy-2,6-dimethylphenyl)-1,5-naphthyridine-2-carboxamide], the figures for the IC50 (at PKMYT1; in experiment [1] (4 hours)) were 0.5 to 1 µM and 1 to 5 µM, respectively.

`Cc1c(O)cncc1-c1c(N)c(C(N)=O)nc2c1NCCC2` [Compound 334]: the IC50 was 1 to 5 µM at PKMYT1 and at least 5 µM in experiment [1] (Homo sapiens, HCC1806, 4 h).

As for `CCn1ccc2cc(C(N)=O)c(N)c(-c3cccc(O)c3C)c2c1=O` [Compound 324], the values for the IC50 (at PKMYT1; in experiment [1] (4 hours)) were 0.05 to 0.5 µM and 0.5 to 1 µM, respectively.

`Cc1c(O)cccc1-c1c(N)c(C(N)=O)cc2nc(C(F)(F)F)c(O)nc12` [Compound 133]: the IC50 at PKMYT1 fell in the range of 0.05 to 0.5 µM; in experiment [1] (4 hours), 1 to 5 µM.

Take `Cc1c(-c2c(N)c(C(N)=O)cc3nccnc23)ccc2oc(N)nc12` [Compound 197]: the IC50 at PKMYT1 is at least 5 µM; in experiment [1] (Homo sapiens, HCC1806, 4 h) it was at least 5 µM.

For `COc1nc2cc(C(N)=O)c(N)c(-c3cccc(O)c3C)c2nc1C` [Compound 172], the IC50 (on PKMYT1; in experiment [1] (4 hours)) was 0.05 to 0.5 µM in each case.

Take `Cc1ccc2nc(C(N)=O)c(N)c(-c3cccc(O)c3C)c2c1` [Compound 55, 3-Amino-4-(3-hydroxy-2-methylphenyl)-6-methylquinoline-2-carboxamide]: the IC50 at PKMYT1 lay within 0.05 to 0.5 µM; in experiment [1] (Homo sapiens, HCC1806, 4 h), 1 to 5 µM.

For `Cc1n[nH]c2cccc(-c3c(N)c(C(N)=O)cc4nccnc34)c12` (single isomer, unassigned) [Compound 118, (M)-7-Amino-8-(3-methyl-1H-indazol-4-yl)quinoxaline-6-carboxamide], the IC50 on PKMYT1 was in the range of 0.05 to 0.5 µM; in experiment [1] (4 hours) it was 1 to 5 µM.

`COc1ccnc2c(-c3cccc(O)c3C)c(N)c(C(N)=O)cc12` (atropisomer, axis not shown) [Compound 325]: the IC50 (on PKMYT1; in experiment [1] (4 hours)) was 1 to 5 µM each time.

Regarding `CCn1ccc2cc(C(N)=O)c(N)c(-c3cccc(O)c3C)c2c1=O` (atropisomer, axis not shown) [Compound 328], the IC50 (on PKMYT1; in experiment [1] (4 hours)) was at least 5 µM each time.

`COc1ccc2nc(C(N)=O)c(N)c(-c3cccc(O)c3C)c2n1` (atropisomer, axis not shown) [Compound 175]: the IC50 (at PKMYT1; in experiment [1] (4 hours)) was at least 5 µM throughout.

As to `Cc1c(O)cccc1-c1c(N)c(C(N)=O)cc2nc(C(F)(F)F)cnc12` (atropisomer, axis not shown; (P)) [Compound 100, (P)-7-Amino-8-(3-hydroxy-2-methylphenyl)-3-(trifluoromethyl)quinoxaline-6-carboxamide], the concentration for half-maximal inhibition (IC50) (on PKMYT1; in experiment [1] (4 hours)) was 0.05 to 0.5 µM each time.

Consider `Cc1ccc(O)c(C)c1-c1c(N)c(C(N)=O)nc2ccc(C(F)(F)F)cc12` (single isomer, unassigned) [Compound 41, (P)-3-amino-4-(3-hydroxy-2,6-dimethylphenyl)-6-(trifluoromethyl)quinoline-2-carboxamide], for which the IC50 (on PKMYT1; in experiment [1] (4 hours)) was at least 5 µM each time.

Consider `Cc1c(O)cccc1-c1c(N)c(C(N)=O)nc2cccc(C(N)=O)c12` [Compound 338], for which the IC50 at PKMYT1 is 0.05 to 0.5 µM; in experiment [1] (Homo sapiens, HCC1806, 4 h) it was 1 to 5 µM.

In the case of `Cn1ccc(-c2cc(C(N)=O)cc3nccnc23)cc1=O` [Compound 132], the IC50 at PKMYT1 is at least 5 µM; in experiment [1] (Homo sapiens, HCC1806, 4 h), at least 5 µM.

On to `Cc1c(O)cccc1-c1c(N)c(C(N)=O)nc2cccc(F)c12` (single isomer, unassigned) [Compound 57, (P)-3-Amino-5-fluoro-4-(3-hydroxy-2-methylphenyl)quinoline-2-carboxamide], for which the IC50 was under 0.05 µM at PKMYT1 and 0.05 to 0.5 µM in experiment [1] (4 hours).

As for `COc1nc2cc(C(N)=O)c(N)c(-c3cccc(O)c3C)c2nc1C` (atropisomer, axis not shown) [Compound 187], the values for the IC50 (at PKMYT1; in experiment [1] (4 hours)) were under 0.05 µM and 0.05 to 0.5 µM, respectively.

With `Cc1ccc2[nH]nc(F)c2c1-c1c(N)c(C(N)=O)cc2nccnc12` (atropisomer, axis not shown) [Compound 299], the IC50 (on PKMYT1; in experiment [1] (4 hours)) was at least 5 µM throughout.

Regarding `Cc1cnc2c(-c3c(C)ccc(O)c3C)c(N)c(C(N)=O)cc2n1` [Compound 217], the IC50 at PKMYT1 was under 0.05 µM; in experiment [1] (4 hours), 0.05 to 0.5 µM.

On to `NC(=O)c1cc2nccnc2c(-c2c(Cl)ccc3[nH]ncc23)c1N` (atropisomer, axis not shown) [Compound 246], for which the IC50 lay in the range of 0.05 to 0.5 µM at PKMYT1 and 0.5 to 1 µM in experiment [1] (4 hours).

In the case of `NC(=O)c1cc2nccnc2c(-c2ccc(F)c(O)c2)c1N` [Compound 200], the IC50 was 0.05 to 0.5 µM on PKMYT1 and at least 5 µM in experiment [1] (Homo sapiens, HCC1806, 4 h).

`Cc1cnc2cc(C(N)=O)c(N)c(-c3cccc(O)c3C)c2n1` (atropisomer, axis not shown) [Compound 169]: the IC50 fell in the range of 0.05 to 0.5 µM on PKMYT1 and 0.5 to 1 µM in experiment [1] (4 hours).

For `Cc1ccc2[nH]ncc2c1-c1c(N)c(C(N)=O)cc2ncccc12` [Compound 144], the IC50 fell in the range of 0.05 to 0.5 µM at PKMYT1 and 1 to 5 µM in experiment [1] (Homo sapiens, HCC1806, 4 h).

On to `Cc1c(O)cccc1-c1c(N)c(C(N)=O)nc2c(=O)[nH]cnc12` [Compound 282], for which the IC50 was 0.05 to 0.5 µM at PKMYT1 and at least 5 µM in experiment [1] (Homo sapiens, HCC1806, 4 h).

Consider `NC(=O)c1nc2cccnc2c(-c2cccc3c2CC(=O)N3)c1N` [Compound 293], for which the IC50 is at least 5 µM at PKMYT1 and at least 5 µM in experiment [1] (Homo sapiens, HCC1806, 4 h).

As for `Cc1cnc2cc(C(N)=O)c(N)c(-c3c(C)ccc(O)c3C)c2n1` (atropisomer, axis not shown) [Compound 188], the IC50 is under 0.05 µM at PKMYT1 and 0.05 to 0.5 µM in experiment [1] (4 hours).

Regarding `Cc1ccc2[nH]ncc2c1-c1c(N)c(C(N)=O)nc2cccnc12` [Compound 6, 3-amino-4-(5-methyl-1H-indazol-4-yl)-1,5-naphthyridine-2-carboxamide], the IC50 on PKMYT1 was in the range of 0.05 to 0.5 µM; in experiment [1] (Homo sapiens, HCC1806, 4 h), 1 to 5 µM.

For the compound `Cc1ccc(O)c(C)c1-c1c(N)c(C(N)=O)nc2ccc(Cl)cc12` [Compound 36, 3-Amino-6-chloro-4-(3-hydroxy-2,6-dimethyl-phenyl) quinoline-2-carboxamide], the IC50 fell in the range of 0.05 to 0.5 µM at PKMYT1 and 1 to 5 µM in experiment [1] (Homo sapiens, HCC1806, 4 h).

Take `Cc1c(O)cccc1-c1c(N)c(C(N)=O)nc2ncccc12` [Compound 237]: the IC50 at PKMYT1 is 0.05 to 0.5 µM; in experiment [1] (Homo sapiens, HCC1806, 4 h), 1 to 5 µM.

For `Cc1ccc(O)c(C)c1-c1c(N)c(C(N)=O)nc2cc(F)ccc12` [Compound 43, 3-Amino-7-fluoro-4-(3-hydroxy-2,6-dimethylphenyl)quinoline-2-carboxamide], the IC50 was 0.05 to 0.5 µM on PKMYT1 and 1 to 5 µM in experiment [1] (Homo sapiens, HCC1806, 4 h).

Regarding `N#Cc1cccc2nc(C(N)=O)c(N)c(-c3cncnc3)c12` [Compound 236], the IC50 on PKMYT1 was 1 to 5 µM; in experiment [1] (Homo sapiens, HCC1806, 4 h) it was at least 5 µM.

(Values after patent US20260176270A1 (Exelixis, Inc., priority 2022, published 2026).)
